US7183255B2, “Method for stabilizing blood pressure in hemodialysis subjects” (Intradialytic Pharmaceuticals, priority 2003, dated 2007)
Where “and” joins values, the source holds several entries; their conditions need not be identical. Identical values can stand only once. Entries after “also recorded” stand apart in the source; their conditions may differ.

Experiments:
Assay type in all cases: in vivo, human
[1] = Plasma AVP (radioimmunoassay) during constant AVP infusion, control vs hemodialysis periods (Example 1); set-up: plasma concentration of AVP at 2 h: unit not given here; details: for plasma concentration of AVP at 2 h: ESRD patients, n=4
Experimental: (§1) Healthy controls and patients with end-stage renal disease (e.g. defined as creatinine clearance of less than 10 ml/min) were studied. The studies were conducted on regularly scheduled hemodialysis days. The duration of hemodialysis remained the same as that prescribed prior to the study period. AVP or placebo (normal saline) was administered at a constant rate of 0.15, 0.3 or o.6 mU/kg/min through a venous line (controls) or through the venous limb of the dialysis circuit (hemodialysis patients). The patient's hemodialysis prescription remained unchanged except for the administration of AVP or placebo. Intradialytic hypotension was treated in the customary manner with the infusion of isotonic and hypertonic fluids.
(§2) Serum AVP levels were determined by a radioimmunoassay technique. Blood pressure was measured with a cuff-type sphygmomanometer at 20 minute intervals.
Plasma AVP is not dialyzed. To examine whether administration of exogenous AVP could prevent intradialytic hypotension, it was first determined whether the dialysis procedure removed the hormone from the blood. To determine this, AVP was administered at doses that had no effect in normal subjects and determined the plasma concentrations and pressure responses to AVP infusion in healthy control subjects and hemodialysis patients.
To rule out the possibility that the lack of a rise in plasma AVP during dialysis was due to the fact that the newly secreted hormone was being dialyzed as was being secreted, we measured plasma AVP during the infusion of exogenous AVP to ERDS patients during control conditions and during hemodialysis.

[2] = tested on: ESRD patients during hemodialysis; assay: Similar study of fluid removal by hemodialysis with AVP vs placebo (FIG. 7); details: five patients on AVP (FIG. 7)
Text: FIG. 7 depicts greater fluid removal by hemodialysis with AVP.

[3] = tested on: patients with end-stage renal disease; assay: Systolic arterial pressure during AVP infusion in ESRD patients off dialysis (Example 1); details: for systolic arterial blood pressure: ESRD, n=12, M ± SD
Experimental: as §1, §2
We discovered that patients with ERSD are hypersensitive to vasopressin's pressor action.
The administration of exogenous AVP to patients with ESDR led to the discovery that these patients are hyper-responsive to the vascular effect of this hormone.

[4] = Plasma vasopressin during constant vasopressin infusion in normal subjects and ESRD patients (Example 3, FIG. 8); details: normal subjects vs patients with ESRD
Experimental: Plasma vasopressin concentration. Vasopressin in plasma was determined as previously described (Landry, D. W., H. R. Levin, et al. (1997). Circulation 95(5): 1122–5).
Administration of vasopressin. In eight normal subjects and eight patients with ESRD off dialysis, 8-arginine vasopressin (vasopressin, American Pharmaceutical Partners, Schaumberg, Ill.) in normal saline was administered through an antecubital intravenous line. In eight patients with ESRD during hemodialysis, vasopressin was infused through the venous (blood return) limb of the dialysis circuit throughout the dialysis session at a rate of 0.15 or 0.3 mU·kg^−1·min^−1.
Effect of vasopressin administration on its plasma concentration in normal subjects and Patients with ESRD. Because the effect of renal failure on the clearance of plasma vasopressin has remained unresolved (Shade, R. E. and L. Share (1976). Endocrinology 99(5): 1199–206; Benmansour, M., M. Rainfray, et al. (1982). Eur J Clin Invest 12(6): 475–80; Argent, N. B., R. Wilkinson, et al. (1992). Clin Sci (Lond) 83(5): 583–7), we administered a constant infusion of hormone to normal subjects and to patients with ESRD and measured plasma levels.

[5] = tested on: ESRD patients during hemodialysis; assay: Fluids needed to maintain blood pressure and weight lost during hemodialysis with AVP, 5 patients (Example 1, FIG. 6)
Experimental: as §1
AVP Administration allows more fluid removal. […] Dialysis during the administration of AVP resulted both in a decreased in the amount of intravenous fluids needed to maintain blood pressure and in a greater decrease in weight.
The amount of fluids to maintain blood pressure during dialysis and the weight decrease were as given below: […]

[6] = tested on: ESRD patients during hemodialysis; assay: Systolic arterial pressure during hemodialysis with AVP infusion vs vehicle, twelve patients (Example 1); details: for systolic arterial pressure: dialysis with AVP infused, M ± SD
Experimental: as §1, §2
AVP administration results in a higher intra-dialysis blood pressure. To examine whether vasopressin could help in supporting blood pressure during dialysis, we dialyzed a group of ESRD patients during administration of vehicle or during administration of vasopressin at a dose without pressor effect in normal subjects.
To determine the blood pressure effect of exogenous AVP during dialysis, two dialysis treatments were administered to twelve patients. In one, only the vehicle used to administer AVP was given while in the other treatment, AVP was infused. As shown, systolic arterial pressure decreased more than 10 mm Hg during the control dialysis while it decreased a maximum of 5 mm Hg during the dialysis in which AVP was infused.

[7] = hemodialysis with AVP, individual patients 1-5

NC(=O)CC[C@@H]1NC(=O)[C@H](Cc2ccccc2)NC(=O)[C@H](Cc2ccc(O)cc2)NC(=O)[C@@H](N)CSSC[C@@H](C(=O)N2CCC[C@H]2C(=O)N[C@@H](CCCN=C(N)N)C(=O)NCC(N)=O)NC(=O)[C@H](CC(N)=O)NC1=O [AVP, 8-arginine vasopressin]
clearance of the hormone from the blood by hemodialysis ([1]; HD instituted during constant AVP infusion): does not clear the hormone from the blood | plasma concentration of AVP at 2 h ([1]; constant infusion dose 0.15, control period): 25.7 | plasma concentration of AVP at 2 h ([1]; constant infusion dose 0.15, hemodialysis period): 28.9 | plasma concentration of AVP at 2 h ([1]; constant infusion dose 0.3, control period): 47.4 | plasma concentration of AVP at 2 h ([1]; constant infusion dose 0.3, hemodialysis period): 51.2 | plasma concentration of AVP at 2 h ([1]; constant infusion dose 0.6, control period): 100.0 | plasma concentration of AVP at 2 h ([1]; constant infusion dose 0.6, hemodialysis period): 104.6 | plasma level of AVP ([1]; infusion of 0.3 mU/kg/min, hemodialysis patients and control subjects): ~40 pg/m | blood pressure stability and extra fluid removal [2]: the blood pressure was stable and extra fluid removal was possible | systolic arterial blood pressure ([3]; 30 minutes of AVP infusion): 162 ± 30 | systolic arterial blood pressure ([3]; 60 minutes of AVP infusion): 161 ± 32 | systolic arterial blood pressure ([3]; 90 minutes of AVP infusion): 161 ± 28 | systolic arterial blood pressure ([3]; 120 minutes of AVP infusion): 150 ± 31 | systolic arterial blood pressure ([3]; before infusion (baseline)): 153 ± 28 | pressor action of AVP ([3]; patients with end-stage renal disease, same dose as in normal subjects (FIG. 3B)): increases blood pressure; also recorded: increased systolic arterial blood pressure | effect of renal failure on clearance of plasma vasopressin [4]: does not alter the clearance | blood pressure stability and extra fluid removal ([5]; all patients on AVP (FIG. 6)): the blood pressure was stable and extra fluid removal was possible | Fluids given to maintain blood pressure during dialysis [5, 7]: 0 mL | Weight lost [5, 7]: 2.8 Kg and 1.8 Kg and 2.2 Kg (2×) and 3.0 Kg | decrease of systolic arterial pressure during dialysis ([6]; dialysis in which AVP was infused, control dialysis decreased more than 10 mm Hg): ≤ 5 mm Hg | systolic arterial pressure ([6]; 30 minutes of dialysis): 153 ± 25 mm Hg | systolic arterial pressure ([6]; 60 minutes of dialysis): 155 ± 29 mm Hg | systolic arterial pressure ([6]; 90 minutes of dialysis): 149 ± 30 mm Hg | systolic arterial pressure ([6]; 120 minutes of dialysis): 148 ± 30 mm Hg | systolic arterial pressure ([6]; 150 minutes of dialysis): 149 ± 31 mm Hg | systolic arterial pressure ([6]; 180 minutes of dialysis): 149 ± 30 mm Hg | systolic arterial pressure ([6]; before dialysis, twelve patients): 153 ± 28 mm Hg
